From EP4567035A1, “NOVEL COMPOUND AS HYPOXIA-INDUCIBLE FACTOR 1(HIF-1) INHIBITOR OR VASCULAR ENDOTHELIAL GROWTH FACTOR (VEGF) INHIBITOR, AND PHARMACEUTICAL COMPOSITION COMPRISING SAME” (Nextgen Bioscience Co., Ltd., priority 2022, dated 2024)
Where two headings read alike, the source gives them in different places.

What was measured:
HIF-1α = molecular target: T1, HIF-1α (Homo sapiens, UniProt Q16665); experiment: Analysis of HIF-1α protein expression (Western blot) in ARPE-19 cells under mixed hypoxic condition; format: cell-based; conditions: concentration range at which HIF-1α expression is reduced by 50% vs untreated control
T1 construct: endogenous in cells; host or cells: ARPE-19 (ATCC CRL-2302)
Method in brief: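 ARPE-19 cells were pretreated 16 h or 2 h with compound (0.1 nM–10 µM, serum-free DMEM/F12), then held 1 h or 24 h in mixed hypoxia (1% O2 plus CoCl2). HIF-1α was quantified by Western blot against β-actin; the concentration range giving ≥50% reduction vs untreated control was reported.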

VEGF = experiment: Evaluation of VEGF protein secretion level (Human VEGF ELISA) in ARPE-19 cell medium under hypoxic conditions; format: cell-based
Method in brief: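 Human ARPE-19 cells were pretreated 2 h with compound (0.1 nM–10 µM, in DMEM/F12 with 1% FBS), then held 24 h in hypoxia (1% O2, 5% CO2). Secreted VEGF in the supernatant was quantified by ELISA (A450). The value is the concentration range giving ≥50% VEGF reduction versus untreated control.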

[1] = values marked * in the table, mixed hypoxic condition (1% oxygen + CoCl2) for 24 hours, read-out: IC50 HIF-1α, Hypoxia(24h)
[2] = ARPE-19 cells, pretreated 2 hours, 24 hours hypoxic conditions, secreted VEGF in medium supernatant by ELISA, concentration range reducing VEGF by 50% vs untreated control, read-out: IC50 VEGF
[3] = mixed hypoxic condition (1% oxygen + CoCl2) for 1 hour, read-out: IC50 HIF-1α Hypoxia (1 hour)
[4] = ARPE-19 cells, pretreated 2 hours, 24 hours hypoxic conditions, ELISA, read-out: concentration at which the secreted VEGF protein level was suppressed to less than 50%
[5] = Experimental Example 2 (HIF-1α Western blot), read-out: concentration at which the expression level of VEGF was suppressed to less than 50%

T1 sequence (Q16665 whole entry): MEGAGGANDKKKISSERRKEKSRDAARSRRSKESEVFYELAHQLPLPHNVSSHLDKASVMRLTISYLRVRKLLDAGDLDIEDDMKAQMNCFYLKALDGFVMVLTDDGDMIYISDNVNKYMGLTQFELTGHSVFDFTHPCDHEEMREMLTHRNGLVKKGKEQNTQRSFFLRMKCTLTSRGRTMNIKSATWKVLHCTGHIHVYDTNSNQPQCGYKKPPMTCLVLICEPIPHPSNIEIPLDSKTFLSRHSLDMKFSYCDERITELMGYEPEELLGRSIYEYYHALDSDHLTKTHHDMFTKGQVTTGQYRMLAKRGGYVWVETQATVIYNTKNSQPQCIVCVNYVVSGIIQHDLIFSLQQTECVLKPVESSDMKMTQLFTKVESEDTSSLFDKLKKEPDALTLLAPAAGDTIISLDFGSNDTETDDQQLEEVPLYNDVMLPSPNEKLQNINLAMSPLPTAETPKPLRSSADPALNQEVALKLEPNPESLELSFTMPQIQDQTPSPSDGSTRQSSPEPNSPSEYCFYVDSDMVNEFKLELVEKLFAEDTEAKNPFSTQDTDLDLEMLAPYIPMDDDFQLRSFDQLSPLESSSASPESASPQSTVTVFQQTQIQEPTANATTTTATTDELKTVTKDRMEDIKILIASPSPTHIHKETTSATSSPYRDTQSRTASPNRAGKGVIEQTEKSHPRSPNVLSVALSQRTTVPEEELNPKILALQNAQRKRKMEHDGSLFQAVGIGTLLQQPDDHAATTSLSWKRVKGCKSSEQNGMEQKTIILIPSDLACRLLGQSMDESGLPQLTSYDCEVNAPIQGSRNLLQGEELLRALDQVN

| Structure (SMILES) | DC50 (HIF-1α; [1]) [nM] | IC50 (VEGF; [2]) [nM] | DC50 (HIF-1α; [3]) [nM] | IC50 (VEGF; [4]) [nM] | IC50 (VEGF; [5]) [nM] |
| --- | --- | --- | --- | --- | --- |
| Cn1cc(C(=O)Nc2cc(F)cc(CNC(=O)c3ncnc4nc(C5CCCC5)[nH]c34)c2)cn1 [Example 5, 8-Cyclopentyl-N-(3-fluoro-5-(1-methyl-1H-pyrazole-4-carboxamido)benzyl)-7H-purine-6-carboxamide] |  | 1000 to 10000 | 100 to 1000 |  |  |
| O=C(NCc1cc(F)cc(-c2cnn(-c3ccc(F)c(Cl)c3)c2)c1)c1ncnc2nc(C3CCCC3)[nH]c12 [Example 87, N-(3-(1-(3-chloro-4-fluorophenyl)-1H-pyrazol-4-yl)-5-fluorobenzyl)-8-cyclopentyl-7H-purine-6-carboxamide] | < 100 | 100 to 1000 |  |  |  |
| O=C(NCc1cc(F)cc(-c2cnn(Cc3ccccc3)c2)c1)c1ncnc2nc(C3CCCC3)[nH]c12 [Example 9, N-(3-(1-benzyl-1H-pyrazol-4-yl)-5-fluorobenzyl)-8-cyclopentyl-7H-purine-6-carboxamide] |  | 100 to 1000 | < 100 |  |  |
| CS(=O)(=O)c1ccc(Cn2cc(-c3cc(F)cc(CNC(=O)c4ncnc5nc(C6CCCC6)[nH]c45)c3)cn2)cc1 [Example 24, 8-Cyclopentyl-N-(3-fluoro-5-(1-(4-(methylsulfonyl)benzyl)-1H-pyrazol-4-yl)benzyl)-7H-purine-6-carboxamide] |  | 100 to 1000 | < 100 |  |  |
| O=C(NCc1cc(F)cc(-c2cnn(-c3ccc(F)cc3)c2)c1)c1ncnc2nc(C3CC4(CCC4)C3)[nH]c12 [Example 100, N-(3-fluoro-5-(1-(4-fluorophenyl)-1H-pyrazol-4-yl)benzyl)-8-(spiro[3.3]heptan-2-yl)-7H-purine-6-carboxamide] | 1000 to 10000 | 1000 to 10000 |  |  |  |
| N#Cc1ccc(-n2cc(-c3cc(F)cc(CNC(=O)c4ncnc5nc(C6CCCC6)[nH]c45)c3)cn2)cc1 [Example 50, N-(3-(1-(4-cyanophenyl)-1H-pyrazol-4-yl)-5-fluorobenzyl)-8-cyclopentyl-7H-purine-6-carboxamide] | < 100 | < 100 |  | < 100 | < 100 |
| COc1ccc(-n2cc(-c3cc(F)cc(CNC(=O)c4ncnc5nc(C6CCCC6)[nH]c45)c3)cn2)cn1 [Example 43, 8-Cyclopentyl-N-(3-fluoro-5-(1-(6-methoxypyridin-3-yl)-1H-pyrazol-4-yl)benzyl)-7H-purine-6-carboxamide] |  | 100 to 1000 | < 100 |  |  |
| O=C(NCc1cc(F)cc(-c2cnn(C(F)(F)F)c2)c1)c1ncnc2nc(C3CCCC3)[nH]c12 [Example 1, 8-Cyclopentyl-N-(3-fluoro-5-(1-(trifluoromethyl)-1H-pyrazol-4-yl)benzyl)-7H-purine-6-carboxamide] |  | 100 to 1000 | < 100 |  |  |
| O=C(NCc1cc(F)cc(-c2ccn(-c3ccc(F)cc3)n2)c1)c1ncnc2nc(C3CCCC3)[nH]c12 [Example 51, 8-Cyclopentyl-N-(3-fluoro-5-(1-(4-fluorophenyl)-1H-pyrazol-3-yl)benzyl)-7H-purine-6-carboxamide] |  | 100 to 1000 | < 100 |  |  |
| O=C(NCc1cc(F)cc(-c2cnn(-c3ccc(F)cc3)c2)c1)c1ncnc2nc(C3CC(F)C3)[nH]c12 (single isomer, unassigned) [102(A), N-(3-Fluoro-5-(1-(4-fluorophenyl)-1H-pyrazol-4-yl)benzyl)-8-(3-fluorocyclobutyl)-7H-purine-6-carboxamide] | 1000 to 10000 | > 10000 |  |  |  |
| O=C(NCc1cc(F)cc(Nc2cccnc2)c1)c1ncnc2nc(C3CCCC3)[nH]c12 [Example 10, 8-Cyclopentyl-N-(3-fluoro-5-(pyridin-3-ylamino)benzyl)-7H-purine-6-carboxamide] |  | 100 to 1000 | < 100 |  |  |
| COC(=O)C1CC(c2nc3ncnc(C(=O)NCc4cc(F)cc(-c5cnn(-c6ccc(F)cc6)c5)c4)c3[nH]2)C1 (single isomer, unassigned) [103(A), Methyl 3-(6-((3-fluoro-5-(1-(4-fluorophenyl)-1H-pyrazol-4-yl)benzyl)carbamoyl)-7H-purin-8-yl)cyclobutanecarboxylate] | > 10000 | > 10000 |  |  |  |
| O=C(NCc1cc(F)cc(-c2cnn(-c3ccc(F)cc3)c2)c1)c1ncnc2nc(C3CC(C(=O)O)C3)[nH]c12 (stereo not shown) [Example 106, 3-(6-((3-Fluoro-5-(1-(4-fluorophenyl)-1H-pyrazol-4-yl)benzyl)carbamoyl)-7H-purin-8-yl)cyclobutanecarboxylic acid] | > 10000 | > 10000 |  |  |  |
| Cn1cc(-c2cc(F)cc(CNC(=O)c3ncnc4nc(C5CC6C(C5)C6(F)F)[nH]c34)c2)cn1 (stereo not shown) [Example 77, 8-(6,6-Difluorobicyclo[3.1.0]hexan-3-yl)-N-(3-fluoro-5-(1-methyl-1H-pyrazol-4-yl)benzyl)-7H-purine-6-carboxamide] |  | 1000 to 10000 | 100 to 1000 |  |  |
| O=C(NCc1cc(F)cc(-c2cnn(-c3ccc(I)cn3)c2)c1)c1ncnc2nc(C3CCCC3)[nH]c12 [Example 48, 8-Cyclopentyl-N-(3-fluoro-5-(1-(5-iodopyridin-2-yl)-1H-pyrazol-4-yl)benzyl)-7H-purine-6-carboxamide] |  | 1000 to 10000 | < 100 |  |  |
| O=C(NCc1cc(F)cc(-c2cnn(-c3cccnc3)c2)c1)c1ncnc2nc(C3CCCC3)[nH]c12 [Example 31, 8-Cyclopentyl-N-(3-fluoro-5-(1-(pyridin-3-yl)-1H-pyrazol-4-yl)benzyl)-7H-purine-6-carboxamide] |  | < 100 | < 100 | < 100 | < 100 |
| O=C(NCc1ccc(-c2cnn(-c3ccc(F)cc3)c2)c(F)c1)c1ncnc2nc(C3CCCC3)[nH]c12 [Example 109, 8-Cyclopentyl-N-(3-fluoro-4-(1-(4-fluorophenyl)-1H-pyrazol-4-yl)benzyl)-7H-purine-6-carboxamide] | > 10000 | > 10000 |  |  |  |
| O=C(NCc1cc(F)cc(-c2ccco2)c1)c1ncnc2nc(C3CCCC3)[nH]c12 [Example 39, 8-Cyclopentyl-N-(3-fluoro-5-(furan-2-yl)benzyl)-7H-purine-6-carboxamide] |  | 100 to 1000 | 100 to 1000 |  |  |

The remaining lines, values ahead:

| DC50 (HIF-1α; [1]) [nM] | IC50 (VEGF; [2]) [nM] | DC50 (HIF-1α; [3]) [nM] | IC50 (VEGF; [4]) [nM] | IC50 (VEGF; [5]) [nM] | Structure (SMILES) |
| --- | --- | --- | --- | --- | --- |
| < 100 | 100 to 1000 |  |  |  | O=C(NCc1cc(F)cc(Nc2ccsc2)c1)c1ncnc2nc(C3CCCC3)[nH]c12 [Example 130, 8-Cyclopentyl-N-(3-fluoro-5-(thiophen-3-ylamino)benzyl)-7H-purine-6-carboxamide] |
| < 100 | 100 to 1000 |  |  |  | O=C(NCc1cc(F)cc(-c2cnn(C3CCCC3)c2)c1)c1ncnc2nc(C3CCCC3)[nH]c12 [Example 138, 8-Cyclopentyl-N-(3-(1-cyclopentyl-1H-pyrazol-4-yl)-5-fluorobenzyl)-7H-purine-6-carboxamide] |
| 100 to 1000 | > 10000 |  |  |  | COC(=O)C(Cc1ccc(-n2cc(-c3cc(F)cc(CNC(=O)c4ncnc5nc(C6CCCC6)[nH]c45)c3)cn2)cc1)NC(=O)c1ncnc2nc(C3CCCC3)[nH]c12 (stereo not shown) [Example 150, Methyl 2-(8-cyclopentyl-7H-purine-6-carboxamido)-3-(4-(4-(3-((8-cyclopentyl-7H-purine-6-carboxamido)methyl)-5-fluorophenyl)-1H-pyrazol-1-yl)phenyl)propanoate] |
| < 100 | 100 to 1000 |  |  |  | Cn1cc(Nc2cc(F)cc(CNC(=O)c3ncnc4nc(C5CCC(F)(F)C5)[nH]c34)c2)cn1 (stereo not shown) [Example 144, 8-(3,3-Difluorocyclopentyl)-N-(3-fluoro-5-((1-methyl-1H-pyrazol-4-yl)amino)benzyl)-7H-purine-6-carboxamide] |
| 1000 to 10000 | > 10000 |  |  |  | O=C(NCc1cc(F)cc(-c2cnn(-c3cc[s+]([O-])c3)c2)c1)c1ncnc2nc(C3CCCC3)[nH]c12 (stereo not shown) [Example 143, 8-Cyclopentyl-N-(3-fluoro-5-(1-(1-oxidothiophen-3-yl)-1H-pyrazol-4-yl)benzyl)-7H-purine-6-carboxamide] |
| 100 to 1000 | 100 to 1000 |  |  |  | Cc1c(-c2cc(F)cc(CNC(=O)c3ncnc4nc(C5CCCC5)[nH]c34)c2)cnn1-c1ccc(F)cc1 [Example 147, 8-Cyclopentyl-N-(3-fluoro-5-(1-(4-fluorophenyl)-5-methyl-1H-pyrazol-4-yl)benzyl)-7H-purine-6-carboxamide] |
| 1000 to 10000 | > 10000 |  |  |  | O=C(NCc1cc(F)cc(N2CCN(c3ccc(F)cc3)CC2)c1)c1ncnc2nc(C3CCCC3)[nH]c12 [Example 131, 8-Cyclopentyl-N-(3-fluoro-5-(4-(4-fluorophenyl)piperazin-1-yl)benzyl)-7H-purine-6-carboxamide] |
| 100 to 1000 | > 10000 |  |  |  | O=C(NCc1cc(F)cc(Nc2ccon2)c1)c1ncnc2nc(C3CCCC3)[nH]c12 [Example 121, 8-Cyclopentyl-N-(3-fluoro-5-(isoxazol-3-ylamino)benzyl)-7H-purine-6-carboxamide] |
| 100 to 1000 | > 10000 |  |  |  | O=C(NCc1cc(F)cc(-n2cc(-c3ccc(F)cc3)cn2)c1)c1ncnc2nc(C3CCCC3)[nH]c12 [Example 149, 8-Cyclopentyl-N-(3-fluoro-5-(4-(4-fluorophenyl)-1H-pyrazol-1-yl)benzyl)-7H-purine-6-carboxamide] |
